Columns and labels:
T-cells = tested on: T-cells; design: method as in PMID 11071398; settings: by decreasing the activity of T-cells; cited from earlier work
ROS production in PMNs = assay: Luminol-enhanced phagocyte chemiluminescence assay, ROS production in isolated PMNs (neutrophils); assay type: cell-based; settings: Homo sapiens, Neutrophil, zymosan activated, luminol probe, mean of triplicate ± SD
Method: (§1) Luminol-enhanced chemiluminescence assay was performed according to the previous reported method. Briefly 25 μL of whole blood or neutrophils (1 × 10^6/mL), suspended in Hank’s solution, were incubated with 25 μL compounds (1, 10, 100 μg/mL for whole blood and 0.5, 5, 50 μg/mL for neutrophils) for 30 min. Zymosan 25 μL (20 mg/mL), followed by 25 μL (7 × 10^-5 M) of luminol was added to make a final volume of 100 μL. A control without the compound was also run. Peak chemiluminescence was recorded using the luminometer. The luminometer was set with repeated scan mode, 50 scans with 30 s intervals and one second point measuring time.

[1] = tested on: T-cell proliferation (PHA activated human peripheral mononuclear cells, PBMC); assay: T-cell proliferation inhibition assay (PHA-activated PBMC, tritiated thymidine incorporation); assay type: cell-based; settings: PHA (5 μg/mL) stimulated PBMC, 72 h + 18 h thymidine pulse, mean of triplicate ± SD, read-out: IC50, inhibitory effect on T-cell proliferation
Method: Peripheral blood mononuclear cells (PBMC) were isolated from heparinized venous blood of healthy adult donors by Ficoll–Hypaque gradient centrifugation. Cells were proliferated as reported earlier. Briefly, cells were cultured at a concentration of 2 × 10^6/mL in a 96-well round bottom tissue culture plate. Cells were stimulated with 5 μg/mL of phytohemagglutinin. Various concentrations of compounds were added to obtain final concentrations of 0.5, 5, 50 μg/mL, each in triplicate. The plate was incubated for 72 h at 37°C in 5% CO2 environment. After 72 h, cells were pulsed with 0.5 μCi/well, tritiated thymidine, and further incubated for 18 h. Cells were harvested onto a glass fiber filter by using cell harvester. The tritiated thymidine incorporation into the cells, which reflects the proliferation level, was measured by a liquid scintillation counter.

[2] = tested on: ROS production in whole blood phagocytes; assay: Luminol-enhanced phagocyte chemiluminescence assay, ROS production in whole blood; assay type: cell-based; settings: zymosan activated, luminol probe, mean of triplicate ± SD; for IC50: Homo sapiens
Method: as §1

Row | SMILES | Immunosuppressant activity in vivo (T-cells) | IC50 (ROS production in PMNs) [µg/mL] | IC50 [1] [µg/mL] | IC50 [2] [µg/mL] | IC50, ROS production (Whole Blood phagocytes) ([2]; human whole blood) [µg/mL] | melting point [°C]
1 | C[C@]12CC(=CO)C(=O)C[C@@H]1CC[C@@H]1[C@@H]2CC[C@@]2(C)[C@H]1CC[C@]2(C)O [Compound 1, 17β-hydroxy-2-(hydroxymethylene)-17α-methyl-5α-androstan-3-one, reference compound] | immunosuppressant activity | 6.3 ± 0.1 | 7.5 ± 0.4 | ~2 | 2.3 ± 0.0 | –
2 | C[C@]12C=C(CO)C(=O)C[C@@H]1CC[C@@H]1[C@@H]2CC[C@@]2(C)[C@H]1CC[C@]2(C)O [Compound 2, 17β-Hydroxy-2-(hydroxymethyl)-17α-methyl-5α-androstan-1-en-3-one] | – | – | 17.4 ± 1.2 | ~2 | – | –
3 | C[C@]12C[C@@H](CO)[C@H](O)C[C@@H]1CC[C@@H]1[C@@H]2CC[C@@]2(C)[C@H]1CC[C@@]2(O)CO [Compound 3, 2α,17α-Di(hydroxymethyl)-5α-androstan-3β-17β-diol] | – | > 50 | 17 ± 1.2 | > 100 | – | –
4 | CC12CC(O)C(O)CC1CCC1C2CCC2(C)C1CCC2(C)O (stereo not drawn) [Compound 4, 17α-Methyl-5α-androstan-2α,3β-17β-triol] | – | > 50 | 11.8 ± 0.9 | > 100 | – | 124 to 125
5 | C[C@]12C=C(CO)C(=O)C=C1CC[C@@H]1[C@@H]2CC[C@@]2(C)[C@H]1CC[C@]2(C)O [Compound 5, 17β-Hydroxy-2-(hydroxymethyl)-17α-methylandrost-1,4-dien-3-one] | – | > 50 | 31.2 ± 1.9 | > 100 | – | 163 to 164
6 | C[C@]12C[C@@H](CO)C(=O)C[C@@H]1CC[C@@H]1[C@@H]2CC[C@@]2(C)[C@H]1CC[C@]2(C)O [Compound 6, 17β-Hydroxy-2α-(hydroxymethyl)-17α-methyl-5α-androstan-3-one] | – | > 50 | 2.7 ± 0.2 | > 100 | – | 197 to 199
7 | C[C@]12C[C@@H](CO)[C@H](O)C[C@@H]1CC[C@@H]1[C@@H]2CC[C@@]2(C)[C@H]1CC[C@]2(C)O [Compound 7, 2α-(Hydroxymethyl)-17α-methyl-5α-androstan-3β-17β-diol] | – | > 50 | 10.6 ± 0.4 | 25.6 | – | 279 to 281
8 | CC(C)Cc1ccc(C(C)C(=O)O)cc1 (centres unmarked) [Ibuprofen, reference compound] | – | 2.5 ± 0.6 | – | 11.2 ± 1.9 | – | –
9 | C[C@]12C=CC(=O)C=C1CC[C@@H]1[C@@H]2[C@@H](O)C[C@@]2(C)[C@H]1CC[C@]2(O)C(=O)CO [Prednisolone, reference compound] | – | – | < 3.1 | – | – | –
